Measurements as given in publication PMC12209990, “Effect of Cytochrome P450 3A Inhibition and Induction by Itraconazole and Rifampin on Tazemetostat Pharmacokinetics in Patients With Advanced Malignancies” (Clinical Pharmacology in Drug Development, 2025).
Like-named read-outs stand apart in the source and are kept apart here. Marks after values point to notes of the source that are not given here.

Tests used:
[1] = Phase I DDI study Part 2: tazemetostat plasma PK alone and with rifampin (noncompartmental analysis); assay type: in vivo, human; conditions: for AUC0‐12h ratio, geoLSM (90% CI) / Cmax ratio, geoLSM (90% CI): steady state with rifampin vs alone, Day 24 versus Day 15; for RacAUC (AUC0‐12h accumulation ratio), geoLSM (90% CI) / RacCmax (Cmax accumulation ratio), geoLSM (90% CI): tazemetostat 800 mg alone, Day 15 versus Day 1; for Tmax / AUC / AUC(0-t) / Cmax / half-life: human; for Tmax: read-out: tmax, median (range)
Source text: This was a Phase I, multicenter, open‐label, 2‐part study encompassing a fixed‐sequence design that aimed to characterize the PK of tazemetostat when administered as single and twice‐daily oral doses alone or in combination with either itraconazole (Part 1) or rifampin (Part 2). Secondary objectives were to evaluate the safety profile of tazemetostat when coadministered with either itraconazole (Part 1) or rifampin (Part 2).
Part 2 of the study evaluated the DDI between tazemetostat and rifampin. On the mornings of Days 1 and 15, patients received a single dose of tazemetostat 800 mg orally. On Days 3‐14, patients received tazemetostat 800 mg twice daily. On Days 17‐23, patients received tazemetostat 800 mg twice daily, coadministered in the morning with a single dose of rifampin 600 mg orally. On the morning of Day 24, patients received a single dose of tazemetostat 800 mg coadministered with rifampin 600 mg. On the morning of Day 25, patients received rifampin 600 mg (Figure 1B). Throughout Part 2, administration of rifampin occurred 1 hour before a meal.
In Part 2, plasma concentrations of tazemetostat following tazemetostat dosing on Days 1, 15, and 24 were quantified for PK analyses before dosing (0 hour) and at 0.5, 1, 1.5, 2, 4, 6, 8, 12, 24, 36, and 48 hours.
Plasma concentrations of tazemetostat, over the ranges of 1.00‐2000 ng/mL, were quantified by a fully validated liquid chromatography with tandem mass spectrometric detection analytical method. Samples that had no detectable peak or had the calculated concentration <1.00 ng/mL were reported as below the lower limit of quantification. Tazemetostat analysis consisted of protein precipitation extraction and separation using mobile phases of 100 mM ammonium formate/water (1:9 v/v) (mobile phase A) and 100 mM ammonium formate/acetonitrile (1:9 v/v) (mobile phase B). Detection was achieved using an API‐5500 mass spectrometer (AB Sciex) using electrospray ionization (positive‐ion mode) in the multiple reaction monitoring mode. The multiple reaction monitoring mode m/z transitions monitored were […] for tazemetostat and the dwell time was set at 300 milliseconds.
Plasma concentration‐time data for tazemetostat were analyzed by noncompartmental analysis using the validated software program Phoenix WinNonlin Professional Version 8.3 (Certara Inc., Mountain View, CA).

[2] = Safety (TEAEs) Part 1: tazemetostat coadministered with itraconazole
Procedure: Part 1 of the study evaluated the DDI between tazemetostat and itraconazole. On the mornings of Days 1 and 15, patients received a single dose of tazemetostat 400 mg orally. On Days 3‐14, patients received tazemetostat 400 mg twice daily (morning and evening). On Days 18‐20, patients received itraconazole 200 mg orally once daily in the morning. On Days 21‐35, tazemetostat 400 mg twice daily was coadministered in the morning with a single dose of itraconazole 200 mg. On Day 36, patients received a single dose of tazemetostat 400 mg coadministered in the morning with a single dose of itraconazole 200 mg. On Days 37 and 38, patients received a single dose of itraconazole 200 mg (Figure 1A). Throughout Part 1, administration of itraconazole occurred 1 hour after a meal.
Safety was assessed by monitoring treatment‐emergent adverse events (TEAEs) and vital signs, electrocardiography, and clinical laboratory tests. TEAEs were defined as adverse events that started or worsened in severity on or after the date of the first dose of the study drug through 30 days after the last dose. Treatment‐related TEAEs were summarized by each study drug for both study parts. Adverse events were coded using the Medical Dictionary for Regulatory Activities Version 23.1 and graded per Common Terminology Criteria for Adverse Events Version 5.0.

[3] = set-up: method as in PMID 29473431, PMID 38520556, PMID 33492746; conditions: doses of 200‐1600 mg twice daily; cited from earlier work
[4] = Part 2, tazemetostat 800 mg twice daily alone, multiple dosing, Day 15, plasma

In the case of `CCN(c1cc(-c2ccc(CN3CCOCC3)cc2)cc(C(=O)NCc2c(C)cc(C)[nH]c2=O)c1C)C1CCOCC1` [Tazemetostat], the “AUC0‐12h ratio, geoLSM (90% CI)” value ([1]; Part 2) was 0.163 (0.128‐0.208) ^d, the “Cmax ratio, geoLSM (90% CI)” value ([1]; Part 2) was 0.164 (0.122‐0.219) ^d and the “AUC0‐12h ratio, geoLSM (90% CI)” value ([1]; Part 2, listed as tazemetostat) was 0.163. The “Cmax ratio, geoLSM (90% CI)” value ([1]; Part 2, listed as tazemetostat) was 0.164, the “RacAUC (AUC0‐12h accumulation ratio), geoLSM (90% CI)” value ([1]; Part 2) was 0.816 (0.638‐1.04) ^e and the “RacCmax (Cmax accumulation ratio), geoLSM (90% CI)” value ([1]; Part 2) was 0.828 (0.635‐1.08) ^e. The “RacAUC (AUC0‐12h accumulation ratio), geoLSM (90% CI)” value ([1]; Part 2, listed as tazemetostat) was 0.816, the “RacCmax (Cmax accumulation ratio), geoLSM (90% CI)” value ([1]; Part 2, listed as tazemetostat) was 0.828 and the “t1/2, GeoMean (CV%)” value [1, 4] was 7.55 (20.3) hour. For the same compound, the “tmax, median (range)” value [1, 4] was 1.00 (0.63‐4.00) hour, the Tmax ([1]; oral, Part 2, tazemetostat 800 mg multiple dosing with rifampin 600 mg once daily, Day 24, plasma) was 1.01 h and the AUC ([1]; plasma, oral, 800 mg, Part 2, tazemetostat 800 mg twice daily alone, multiple dosing, Day 15, plasma, read-out: AUC0‐12 h, GeoMean (CV%)) was 3610 ng·h/mL. It also gave an AUC ([1]; plasma, oral, 800 mg, Part 2, tazemetostat 800 mg twice daily alone, multiple dosing, Day 15, plasma, read-out: AUC0‐12 h, mean (SD)) of 4330 ng·h/mL, an AUC(0-t) ([1]; plasma, oral, 800 mg, Part 2, tazemetostat 800 mg twice daily alone, multiple dosing, Day 15, plasma, read-out: AUClast, GeoMean (CV%)) of 4270 ng·h/mL and an AUC(0-t) ([1]; plasma, oral, 800 mg, Part 2, tazemetostat 800 mg twice daily alone, multiple dosing, Day 15, plasma, read-out: AUClast, mean (SD)) of 5220 ng·h/mL. For the same compound, the Cmax ([1]; plasma, oral, 800 mg, Part 2, tazemetostat 800 mg twice daily alone, multiple dosing, Day 15, plasma, read-out: Cmax, GeoMean (CV%)) was 1100 ng/mL, the Cmax ([1]; plasma, oral, 800 mg, Part 2, tazemetostat 800 mg twice daily alone, multiple dosing, Day 15, plasma, read-out: Cmax, mean (SD)) was 1380 ng/mL and the half-life ([1]; plasma, oral, 800 mg, Part 2, tazemetostat 800 mg twice daily alone, multiple dosing, Day 15, plasma, read-out: t1/2, mean (SD) (converted)) was 7.7 h. The AUC ([1]; plasma, oral, Part 2, tazemetostat 800 mg multiple dosing with rifampin 600 mg once daily, Day 24, plasma, read-out: AUC0‐12 h, GeoMean (CV%)) was 588 ng·h/mL, the AUC ([1]; plasma, oral, Part 2, tazemetostat 800 mg multiple dosing with rifampin 600 mg once daily, Day 24, plasma, read-out: AUC0‐12 h, mean (SD)) was 770 ng·h/mL and the AUC(0-t) ([1]; plasma, oral, Part 2, tazemetostat 800 mg multiple dosing with rifampin 600 mg once daily, Day 24, plasma, read-out: AUClast, GeoMean (CV%)) was 676 ng·h/mL. The AUC(0-t) ([1]; plasma, oral, Part 2, tazemetostat 800 mg multiple dosing with rifampin 600 mg once daily, Day 24, plasma, read-out: AUClast, mean (SD)) was 934 ng·h/mL, the Cmax ([1]; plasma, oral, Part 2, tazemetostat 800 mg multiple dosing with rifampin 600 mg once daily, Day 24, plasma, read-out: Cmax, GeoMean (CV%)) was 181 ng/mL and the Cmax ([1]; plasma, oral, Part 2, tazemetostat 800 mg multiple dosing with rifampin 600 mg once daily, Day 24, plasma, read-out: Cmax, mean (SD)) was 233 ng/mL. It also gave a half-life ([1]; plasma, oral, Part 2, tazemetostat 800 mg multiple dosing with rifampin 600 mg once daily, Day 24, plasma, read-out: t1/2, GeoMean (CV%) (converted)) of 4.86 h, a half-life ([1]; plasma, oral, Part 2, tazemetostat 800 mg multiple dosing with rifampin 600 mg once daily, Day 24, plasma, read-out: t1/2, mean (SD) (converted)) of 5.06 h and an AUC ([1]; plasma, po, 800 mg, Part 2, tazemetostat 800 mg oral single dose alone, Day 1, plasma, read-out: AUC0‐12 h, GeoMean (CV%)) of 4420 ng·h/mL. The AUC ([1]; plasma, po, 800 mg, Part 2, tazemetostat 800 mg oral single dose alone, Day 1, plasma, read-out: AUC0‐12 h, mean (SD)) was 5310 ng·h/mL, the AUC(0-t) ([1]; plasma, po, 800 mg, Part 2, tazemetostat 800 mg oral single dose alone, Day 1, plasma, read-out: AUClast, GeoMean (CV%)) was 5200 ng·h/mL and the AUC(0-t) ([1]; plasma, po, 800 mg, Part 2, tazemetostat 800 mg oral single dose alone, Day 1, plasma, read-out: AUClast, mean (SD)) was 6370 ng·h/mL. For the same compound, the Cmax ([1]; plasma, po, 800 mg, Part 2, tazemetostat 800 mg oral single dose alone, Day 1, plasma, read-out: Cmax, GeoMean (CV%)) was 1330 ng/mL, the Cmax ([1]; plasma, po, 800 mg, Part 2, tazemetostat 800 mg oral single dose alone, Day 1, plasma, read-out: Cmax, mean (SD)) was 1550 ng/mL and the half-life ([1]; plasma, po, 800 mg, Part 2, tazemetostat 800 mg oral single dose alone, Day 1, plasma, read-out: t1/2, GeoMean (CV%) (converted)) was 6.22 h. For the same compound, the half-life ([1]; plasma, po, 800 mg, Part 2, tazemetostat 800 mg oral single dose alone, Day 1, plasma, read-out: t1/2, mean (SD) (converted)) was 6.49 h, the Tmax ([1]; Part 2, tazemetostat 800 mg oral single dose alone, Day 1, plasma) was 1.04 h and the “decrease of tazemetostat steady‐state exposure (Cmax and AUC0‐12h) by rifampin” value ([1]; steady state, Day 24/Day 15) was “approximately 84%”. The “Deaths due to serious TEAEs” value ([2]; Part 1, within 30 days following the last dose, tazemetostat with itraconazole, neither considered treatment related) was “Two deaths”, the “Any TEAE Grade 3 or 4, patients” value ([2]; human, in vivo) was 11 (52.4) n (%) and the “Any TEAE leading to dose reduction, patients” value ([2]; human, in vivo) was 0 n (%). The “Any TEAE leading to study drug discontinuation, patients” value ([2]; human, in vivo) was 1 (4.8) n (%), the “Any TEAE leading to study drug interruption, patients” value ([2]; human, in vivo) was 9 (42.9) n (%) and the “Any TESAE, patients” value ([2]; human, in vivo) was 8 (38.1) n (%). The “Any treatment-related TEAE Grade 3 or 4, patients” value ([2]; human, in vivo) was 2 (9.5) n (%), the “Any treatment-related TESAE, patients” value ([2]; human, in vivo) was 0 n (%) and the “TEAE anemia, frequency” value ([2]; human, in vivo) was 28.6%. The “TEAE constipation, frequency” value ([2]; human, in vivo) was 23.8%, the “TEAE decreased appetite, frequency” value ([2]; human, in vivo) was 33% and the “TEAE dyspnea, frequency” value ([2]; human, in vivo) was 33%. The “TEAE fatigue, frequency” value ([2]; human, in vivo) was 28.6%, the “TEAE nausea, frequency” value ([2]; human, in vivo) was 28.6% and the “Treatment-related TEAE Grade 3 or 4, related to the named study drug, patients” value ([2]; human, in vivo) was 2 (9.5) n (%). The “Treatment-related TEAEs, related to the named study drug, patients” value ([2]; human, in vivo) was 12 (57.1) n (%), the “Treatment-related TESAE, related to the named study drug, patients” value ([2]; human, in vivo) was 0 n (%) and the “Treatment‐related Grade 3/4 TEAE anemia” value ([2]; human, in vivo) was 9.5%. For the same compound, the “Treatment‐related Grade 3/4 TEAE hyponatremia” value ([2]; human, in vivo) was 4.8% and the “dose proportionality of systemic exposure” value [3] was “approximately dose proportional”.
